From the NIST ThermoML archive (doi:10.1016/j.jct.2010.04.019)

Assay: molar heat capacity at constant pressure; xn = mol fraction of the nth substance listed
Settings: 101 kPa, Liquid, Vacuum adiabatic calorimetry

CC#N [acetonitrile] + O
molar heat capacity at constant pressure [J/K/mol]
Settings | 283.15 K | 298.15 K | 313.15 K | 328.15 K
x1 = 0.0112 | 76.78 | 76.64 | 76.74 | 76.89
x1 = 0.0194 | 77.58 | 77.54 | 77.7 | 77.9
x1 = 0.0286 | 78.38 | 78.45 | 78.67 | 78.89
x1 = 0.0383 | 79.1 | 79.27 | 79.51 | 79.77
x1 = 0.0497 | 79.91 | 80.02 | 80.18 | 80.51
x1 = 0.0611 | 80.52 | 80.57 | 80.8 | 81
x1 = 0.0702 | 80.89 | 80.95 | 81.21 | 81.46
x1 = 0.0804 | 81.26 | 81.33 | 81.57 | 81.9
x1 = 0.091 | 81.66 | 81.73 | 81.99 | 82.33
x1 = 0.1007 | 81.99 | 82.06 | 82.36 | 82.7
x1 = 0.2124 | 85.36 | 85.66 | 86.24 | 86.82
x1 = 0.3063 | 87.72 | 88.31 | 89.08 | 89.92
x1 = 0.3987 | 89.89 | 90.7 | 91.59 | 92.56
x1 = 0.4856 | 91.57 | 92.38 | 93.42 | 94.38
x1 = 0.6011 | 93.03 | 93.96 | 94.89 | 95.86
x1 = 0.7107 | 93.7 | 94.44 | 95.33 | 96.16
x1 = 0.8024 | 93.56 | 94.16 | 94.79 | 95.62
x1 = 0.9005 | 92.77 | 93.28 | 93.87 | 94.55
x1 = 0.9091 | 92.66 | 93.17 | 93.75 | 94.42
x1 = 0.9203 | 92.52 | 93.01 | 93.59 | 94.24
x1 = 0.9316 | – | 92.85 | 93.41 | 94.06
x1 = 0.9402 | 92.25 | 92.73 | 93.29 | 93.94
x1 = 0.9496 | 92.11 | 92.59 | 93.14 | 93.77
x1 = 0.9604 | 91.94 | 92.4 | 92.95 | 93.58
x1 = 0.9711 | 91.77 | 92.22 | 92.76 | 93.38
x1 = 0.9803 | 91.61 | 92.06 | 92.59 | 93.21
x1 = 0.991 | 91.42 | 91.87 | 92.39 | 93
x1 = 1 | 91.25 | 91.69 | 92.21 | 92.82

O [water] + CC#N
x2 = 0
Settings | molar heat capacity at constant pressure [J/K/mol]
283.15 K | 75.52
298.15 K | 75.29
313.15 K | 75.27
328.15 K | 75.34
